Data taken from the supplement of paper PMC10307832.

Experiments:
Test in all cases: relative viability (nuclei count vs DMSO), 5 days (fraction); higher = more cells survive
[1] = compound: O=c1[nH]cc(F)c(=O)[nH]1 [5-Fluorouracil] + Nc1ncn([C@H]2C[C@H](O)[C@@H](CO)O2)c(=O)n1 [Decitabine] (partner 2 µM)
How it was run: (§1)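 One day after seeding in 1536-well plates, lung cancer cell lines were dosed by pin tool. Dosing was either single-drug or a fixed anchor-drug dose plus five library-drug doses (not always all listed) in √10 steps. After 5 days, nuclei were stained in one fix-and-stain step and counted on 4× images, and relative viability is the nuclei count of treated wells over that of vehicle wells, given as the median of duplicate plates.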

Sulindac + Lapatinib = compound: CC1=C(CC(=O)O)c2cc(F)ccc2/C1=C\c1ccc([S+](C)[O-])cc1 [Sulindac] + CS(=O)(=O)CCNCc1ccc(-c2ccc3ncnc(Nc4ccc(OCc5cccc(F)c5)c(Cl)c4)c3c2)o1 [Lapatinib] (partner 2 µM)
How it was run: as §1

[2] = compound: O=c1[nH]cc(F)c(=O)[nH]1 [5-Fluorouracil] + CS(=O)(=O)N1CCN(Cc2cc3nc(-c4cccc5[nH]ncc45)nc(N4CCOCC4)c3s2)CC1 [Pictilisib] (partner 1 µM)
How it was run: as §1

[3] = compound: O=c1[nH]cc(F)c(=O)[nH]1 [5-Fluorouracil] + CC(=O)c1c(C)c2cnc(Nc3ccc(N4CCNCC4)cn3)nc2n(C2CCCC2)c1=O [Palbociclib] (partner 0.5 µM)
How it was run: as §1

| Cell Line | relative viability ([1]; first compound 0.02 µM) | relative viability ([1]; first compound 0.2 µM) | relative viability ([1]; first compound 0.6325 µM) | relative viability ([1]; first compound 2 µM) | relative viability (Sulindac + Lapatinib; first compound 0.08 µM) | relative viability (Sulindac + Lapatinib; first compound 0.253 µM) | relative viability (Sulindac + Lapatinib; first compound 0.8 µM) | relative viability (Sulindac + Lapatinib; first compound 2.53 µM) | relative viability (Sulindac + Lapatinib; first compound 8 µM) | relative viability ([2]; first compound 0.02 µM) | relative viability ([2]; first compound 0.2 µM) | relative viability ([2]; first compound 0.6325 µM) | relative viability ([2]; first compound 2 µM) | relative viability ([3]; first compound 0.02 µM) | relative viability ([3]; first compound 0.2 µM) | relative viability ([3]; first compound 0.6325 µM) | relative viability ([3]; first compound 2 µM) |
| --- | --- | --- | --- | --- | --- | --- | --- | --- | --- | --- | --- | --- | --- | --- | --- | --- | --- |
| 201T | 0.885 | 0.559 | 0.3 | 0.257 | 1.05 | 0.974 | 1.04 | 0.997 | 1.07 | 0.759 | 0.597 | 0.442 | 0.373 | 0.376 | 0.347 | 0.294 | 0.256 |
| A549 | 0.296 | 0.264 | 0.252 | 0.224 | 1.12 | 0.975 | 0.995 | 1.04 | 1.22 | 0.578 | 0.474 | 0.21 | 0.12 | – | – | – | – |
| A-427 | 0.526 | 0.603 | 0.544 | 0.479 | 1.23 | 1.02 | 1.07 | 1.05 | 1.1 | 0.664 | 0.823 | 0.581 | 0.587 | 0.529 | 0.518 | 0.49 | 0.364 |
| ABC-1 | 1.25 | 0.959 | 0.944 | 0.87 | – | 1.23 | 1.13 | 1.28 | 1.24 | 0.885 | 0.682 | 0.59 | 0.599 | 0.749 | 0.794 | 0.883 | 0.49 |
| BEN | 0.743 | 0.743 | 0.746 | 0.681 | 0.785 | 0.714 | 0.695 | 0.754 | 0.995 | 0.557 | 0.597 | 0.536 | 0.555 | 0.443 | 0.433 | 0.472 | 0.449 |
| CAL-12T | – | – | – | – | 0.697 | 0.64 | 0.583 | 0.545 | 0.806 | 0.461 | 0.717 | 0.346 | 0.394 | 0.515 | 0.419 | 0.359 | 0.251 |
| COR-L23 | 0.452 | 0.449 | 0.412 | 0.254 | 1.58 | 1.16 | – | 0.976 | 1.12 | 0.864 | 0.711 | 0.367 | 0.231 | 0.288 | 0.315 | 0.206 | 0.144 |
| COR-L 105 | 0.763 | 0.677 | 0.719 | 0.438 | 0.348 | 0.34 | 0.408 | 0.324 | 0.412 | 0.473 | 0.458 | 0.4 | 0.391 | 0.4 | 0.438 | 0.44 | 0.427 |
| Calu-6 | – | – | – | – | 1.29 | 1.04 | 1.09 | 1.25 | 1.3 | 1.08 | 0.948 | 0.836 | 0.485 | – | – | – | – |
| ChaGo-K-1 | 0.573 | 0.519 | 0.435 | 0.439 | – | – | – | – | – | 0.747 | 0.919 | 0.48 | 0.645 | 0.958 | 0.914 | 0.803 | 0.51 |
| EBC-1 | – | – | – | – | 0.213 | 0.211 | – | 0.237 | 0.218 | 0.319 | 0.33 | 0.46 | 0.329 | – | – | – | – |
| EKVX | 0.297 | – | – | – | 0.193 | 0.186 | 0.21 | 0.18 | 0.111 | – | – | 0.151 | 0.115 | – | 0.276 | – | 0.175 |
| EMC-BAC-2 | 1.01 | 1.08 | 0.97 | 1.01 | 0.945 | 0.973 | 0.682 | 0.88 | 0.93 | 0.616 | 0.56 | 0.506 | 0.536 | 0.52 | 0.532 | 0.501 | 0.518 |
| EPLC-272H | 0.357 | 0.305 | 0.224 | 0.22 | 0.987 | – | 0.602 | 0.78 | 1.24 | 0.337 | 0.294 | 0.199 | 0.221 | 0.319 | 0.36 | 0.3 | 0.343 |
| H3255 | 0.694 | 0.629 | 0.645 | 0.488 | 0.206 | 0.217 | 0.42 | 0.21 | 0.276 | 0.462 | 0.498 | 0.495 | 0.386 | 0.291 | 0.317 | 0.305 | 0.296 |
| HARA | 0.519 | 0.533 | 0.605 | 0.488 | 0.989 | 0.835 | – | 0.858 | 0.893 | 0.562 | 0.518 | 0.321 | 0.373 | 0.305 | 0.261 | 0.267 | 0.286 |
| HCC-15 | 0.751 | 0.711 | 0.63 | 0.476 | 1.06 | 0.87 | 0.763 | 0.801 | 0.914 | 0.903 | 0.762 | 0.539 | 0.315 | 0.499 | 0.744 | 0.52 | 0.302 |
| HCC-44 | 1.07 | 0.96 | 0.94 | 0.77 | 1.14 | 1.05 | 0.919 | 1.05 | 1.15 | 0.784 | 0.58 | 0.46 | 0.33 | 0.971 | 0.929 | 0.823 | 0.619 |
| HCC-78 | 0.711 | 0.726 | 0.427 | 0.327 | 0.868 | 0.623 | 0.28 | 0.569 | 0.944 | 0.236 | 0.182 | 0.181 | – | 0.467 | 0.529 | 0.496 | 0.451 |
| HCC-366 | 0.344 | 0.32 | 0.194 | 0.128 | 1.19 | 1.13 | 0.765 | 1.06 | 1.49 | 0.166 | 0.156 | 0.108 | 0.0793 | 0.404 | 0.332 | 0.154 | 0.0646 |
| HCC-827 | 0.298 | 0.431 | 0.36 | 0.297 | 0.247 | 0.183 | 0.192 | 0.181 | 0.184 | 0.749 | 1.03 | 0.656 | 0.478 | 0.46 | 0.455 | 0.231 | 0.255 |
